{"source": "patent US20230368862A1", "about": "“BINDING SITE IN TYPE 2 RYANODINE RECEPTOR” (The Trustees of Columbia University in the City of New York, priority 2021, published 2023)", "key": {"[1]": {"molecular_target": "T1, RyR2-R2474S channels (Mus musculus, UniProt E9Q401, R2473S)", "T1 construct": "Cardiac muscle SR microsomes were prepared by homogenizing heart samples on ice; from tissue; host or cells: heart of Ryr2 R2474S/WT mice (SR microsomes)", "assay": "SR Ca^2+ leak assay in heart microsomes (Fluo-4)", "format": "biochemical", "settings": "heart microsomes from mice treated with epinephrine and Compound 1 in vivo", "protocol": "Ca^2+ leak was measured in microsomes from heart lysates isolated from control Ryr^2R2474S/WT mice, Ryr^2R2474S/WT mice treated with epinephrine, and Ryr^2R2474S/WT mice treated with epinephrine and Compound 1 in EXAMPLE 8. […] Cardiac muscle SR microsomes were prepared by homogenizing heart samples on ice using a Teflon glass homogenizer (50 times) with 2 volumes of 20 mM tris-maleate (pH 7.4), 1 mM EDTA, 1 mM DTT, and protease inhibitors (Roche). Homogenate was then spun by centrifuge at 4000 g for 15 min at 4° C., and the resultant supernatant was spun by centrifuge at 50,000 g for 45 min at 4° C. Pellets were resuspended in lysis buffer containing 300 mM sucrose. Microsomes ([…]) were diluted into a buffer (pH 7.2) containing 8 mM K-phosphocreatine, and creatine kinase (2 U/ml), mixed with 3 μM Fluo-4 and added to multiple wells of a 96-well plate. Ca^2+ loading of the microsomes was initiated by adding 1 mM ATP. After Ca^2+ uptake (50 s), 3 μM thapsigargin was added to inhibit the Ca^2+ reuptake by SERCA. SR Ca^2+ leak was measured by the increase in intensity of the Fluo-4 signal (measured in a Tecan fluorescence plate reader). Ca^2+ leak was quantified as the difference between the average Fluo-4 signal before and after addition of thapsigargin. Graphs were plotted with GraphPad Prism software."}, "[2]": {"molecular_target": "T2, PKA phosphorylated RyR2-R2474S (Homo sapiens, UniProt Q92736, R2474S)", "T2 construct": "Each fragment was subcloned into a full-length human RYR2 construct in pCMV5 vector; made in house; host or cells: HEK293 (RyR2-R2474S, transient); E. coli BL21(DE3) (GST-calstabin-2)", "T2 sequence (Q92736 whole entry R2474S, the tested form may be a part)": "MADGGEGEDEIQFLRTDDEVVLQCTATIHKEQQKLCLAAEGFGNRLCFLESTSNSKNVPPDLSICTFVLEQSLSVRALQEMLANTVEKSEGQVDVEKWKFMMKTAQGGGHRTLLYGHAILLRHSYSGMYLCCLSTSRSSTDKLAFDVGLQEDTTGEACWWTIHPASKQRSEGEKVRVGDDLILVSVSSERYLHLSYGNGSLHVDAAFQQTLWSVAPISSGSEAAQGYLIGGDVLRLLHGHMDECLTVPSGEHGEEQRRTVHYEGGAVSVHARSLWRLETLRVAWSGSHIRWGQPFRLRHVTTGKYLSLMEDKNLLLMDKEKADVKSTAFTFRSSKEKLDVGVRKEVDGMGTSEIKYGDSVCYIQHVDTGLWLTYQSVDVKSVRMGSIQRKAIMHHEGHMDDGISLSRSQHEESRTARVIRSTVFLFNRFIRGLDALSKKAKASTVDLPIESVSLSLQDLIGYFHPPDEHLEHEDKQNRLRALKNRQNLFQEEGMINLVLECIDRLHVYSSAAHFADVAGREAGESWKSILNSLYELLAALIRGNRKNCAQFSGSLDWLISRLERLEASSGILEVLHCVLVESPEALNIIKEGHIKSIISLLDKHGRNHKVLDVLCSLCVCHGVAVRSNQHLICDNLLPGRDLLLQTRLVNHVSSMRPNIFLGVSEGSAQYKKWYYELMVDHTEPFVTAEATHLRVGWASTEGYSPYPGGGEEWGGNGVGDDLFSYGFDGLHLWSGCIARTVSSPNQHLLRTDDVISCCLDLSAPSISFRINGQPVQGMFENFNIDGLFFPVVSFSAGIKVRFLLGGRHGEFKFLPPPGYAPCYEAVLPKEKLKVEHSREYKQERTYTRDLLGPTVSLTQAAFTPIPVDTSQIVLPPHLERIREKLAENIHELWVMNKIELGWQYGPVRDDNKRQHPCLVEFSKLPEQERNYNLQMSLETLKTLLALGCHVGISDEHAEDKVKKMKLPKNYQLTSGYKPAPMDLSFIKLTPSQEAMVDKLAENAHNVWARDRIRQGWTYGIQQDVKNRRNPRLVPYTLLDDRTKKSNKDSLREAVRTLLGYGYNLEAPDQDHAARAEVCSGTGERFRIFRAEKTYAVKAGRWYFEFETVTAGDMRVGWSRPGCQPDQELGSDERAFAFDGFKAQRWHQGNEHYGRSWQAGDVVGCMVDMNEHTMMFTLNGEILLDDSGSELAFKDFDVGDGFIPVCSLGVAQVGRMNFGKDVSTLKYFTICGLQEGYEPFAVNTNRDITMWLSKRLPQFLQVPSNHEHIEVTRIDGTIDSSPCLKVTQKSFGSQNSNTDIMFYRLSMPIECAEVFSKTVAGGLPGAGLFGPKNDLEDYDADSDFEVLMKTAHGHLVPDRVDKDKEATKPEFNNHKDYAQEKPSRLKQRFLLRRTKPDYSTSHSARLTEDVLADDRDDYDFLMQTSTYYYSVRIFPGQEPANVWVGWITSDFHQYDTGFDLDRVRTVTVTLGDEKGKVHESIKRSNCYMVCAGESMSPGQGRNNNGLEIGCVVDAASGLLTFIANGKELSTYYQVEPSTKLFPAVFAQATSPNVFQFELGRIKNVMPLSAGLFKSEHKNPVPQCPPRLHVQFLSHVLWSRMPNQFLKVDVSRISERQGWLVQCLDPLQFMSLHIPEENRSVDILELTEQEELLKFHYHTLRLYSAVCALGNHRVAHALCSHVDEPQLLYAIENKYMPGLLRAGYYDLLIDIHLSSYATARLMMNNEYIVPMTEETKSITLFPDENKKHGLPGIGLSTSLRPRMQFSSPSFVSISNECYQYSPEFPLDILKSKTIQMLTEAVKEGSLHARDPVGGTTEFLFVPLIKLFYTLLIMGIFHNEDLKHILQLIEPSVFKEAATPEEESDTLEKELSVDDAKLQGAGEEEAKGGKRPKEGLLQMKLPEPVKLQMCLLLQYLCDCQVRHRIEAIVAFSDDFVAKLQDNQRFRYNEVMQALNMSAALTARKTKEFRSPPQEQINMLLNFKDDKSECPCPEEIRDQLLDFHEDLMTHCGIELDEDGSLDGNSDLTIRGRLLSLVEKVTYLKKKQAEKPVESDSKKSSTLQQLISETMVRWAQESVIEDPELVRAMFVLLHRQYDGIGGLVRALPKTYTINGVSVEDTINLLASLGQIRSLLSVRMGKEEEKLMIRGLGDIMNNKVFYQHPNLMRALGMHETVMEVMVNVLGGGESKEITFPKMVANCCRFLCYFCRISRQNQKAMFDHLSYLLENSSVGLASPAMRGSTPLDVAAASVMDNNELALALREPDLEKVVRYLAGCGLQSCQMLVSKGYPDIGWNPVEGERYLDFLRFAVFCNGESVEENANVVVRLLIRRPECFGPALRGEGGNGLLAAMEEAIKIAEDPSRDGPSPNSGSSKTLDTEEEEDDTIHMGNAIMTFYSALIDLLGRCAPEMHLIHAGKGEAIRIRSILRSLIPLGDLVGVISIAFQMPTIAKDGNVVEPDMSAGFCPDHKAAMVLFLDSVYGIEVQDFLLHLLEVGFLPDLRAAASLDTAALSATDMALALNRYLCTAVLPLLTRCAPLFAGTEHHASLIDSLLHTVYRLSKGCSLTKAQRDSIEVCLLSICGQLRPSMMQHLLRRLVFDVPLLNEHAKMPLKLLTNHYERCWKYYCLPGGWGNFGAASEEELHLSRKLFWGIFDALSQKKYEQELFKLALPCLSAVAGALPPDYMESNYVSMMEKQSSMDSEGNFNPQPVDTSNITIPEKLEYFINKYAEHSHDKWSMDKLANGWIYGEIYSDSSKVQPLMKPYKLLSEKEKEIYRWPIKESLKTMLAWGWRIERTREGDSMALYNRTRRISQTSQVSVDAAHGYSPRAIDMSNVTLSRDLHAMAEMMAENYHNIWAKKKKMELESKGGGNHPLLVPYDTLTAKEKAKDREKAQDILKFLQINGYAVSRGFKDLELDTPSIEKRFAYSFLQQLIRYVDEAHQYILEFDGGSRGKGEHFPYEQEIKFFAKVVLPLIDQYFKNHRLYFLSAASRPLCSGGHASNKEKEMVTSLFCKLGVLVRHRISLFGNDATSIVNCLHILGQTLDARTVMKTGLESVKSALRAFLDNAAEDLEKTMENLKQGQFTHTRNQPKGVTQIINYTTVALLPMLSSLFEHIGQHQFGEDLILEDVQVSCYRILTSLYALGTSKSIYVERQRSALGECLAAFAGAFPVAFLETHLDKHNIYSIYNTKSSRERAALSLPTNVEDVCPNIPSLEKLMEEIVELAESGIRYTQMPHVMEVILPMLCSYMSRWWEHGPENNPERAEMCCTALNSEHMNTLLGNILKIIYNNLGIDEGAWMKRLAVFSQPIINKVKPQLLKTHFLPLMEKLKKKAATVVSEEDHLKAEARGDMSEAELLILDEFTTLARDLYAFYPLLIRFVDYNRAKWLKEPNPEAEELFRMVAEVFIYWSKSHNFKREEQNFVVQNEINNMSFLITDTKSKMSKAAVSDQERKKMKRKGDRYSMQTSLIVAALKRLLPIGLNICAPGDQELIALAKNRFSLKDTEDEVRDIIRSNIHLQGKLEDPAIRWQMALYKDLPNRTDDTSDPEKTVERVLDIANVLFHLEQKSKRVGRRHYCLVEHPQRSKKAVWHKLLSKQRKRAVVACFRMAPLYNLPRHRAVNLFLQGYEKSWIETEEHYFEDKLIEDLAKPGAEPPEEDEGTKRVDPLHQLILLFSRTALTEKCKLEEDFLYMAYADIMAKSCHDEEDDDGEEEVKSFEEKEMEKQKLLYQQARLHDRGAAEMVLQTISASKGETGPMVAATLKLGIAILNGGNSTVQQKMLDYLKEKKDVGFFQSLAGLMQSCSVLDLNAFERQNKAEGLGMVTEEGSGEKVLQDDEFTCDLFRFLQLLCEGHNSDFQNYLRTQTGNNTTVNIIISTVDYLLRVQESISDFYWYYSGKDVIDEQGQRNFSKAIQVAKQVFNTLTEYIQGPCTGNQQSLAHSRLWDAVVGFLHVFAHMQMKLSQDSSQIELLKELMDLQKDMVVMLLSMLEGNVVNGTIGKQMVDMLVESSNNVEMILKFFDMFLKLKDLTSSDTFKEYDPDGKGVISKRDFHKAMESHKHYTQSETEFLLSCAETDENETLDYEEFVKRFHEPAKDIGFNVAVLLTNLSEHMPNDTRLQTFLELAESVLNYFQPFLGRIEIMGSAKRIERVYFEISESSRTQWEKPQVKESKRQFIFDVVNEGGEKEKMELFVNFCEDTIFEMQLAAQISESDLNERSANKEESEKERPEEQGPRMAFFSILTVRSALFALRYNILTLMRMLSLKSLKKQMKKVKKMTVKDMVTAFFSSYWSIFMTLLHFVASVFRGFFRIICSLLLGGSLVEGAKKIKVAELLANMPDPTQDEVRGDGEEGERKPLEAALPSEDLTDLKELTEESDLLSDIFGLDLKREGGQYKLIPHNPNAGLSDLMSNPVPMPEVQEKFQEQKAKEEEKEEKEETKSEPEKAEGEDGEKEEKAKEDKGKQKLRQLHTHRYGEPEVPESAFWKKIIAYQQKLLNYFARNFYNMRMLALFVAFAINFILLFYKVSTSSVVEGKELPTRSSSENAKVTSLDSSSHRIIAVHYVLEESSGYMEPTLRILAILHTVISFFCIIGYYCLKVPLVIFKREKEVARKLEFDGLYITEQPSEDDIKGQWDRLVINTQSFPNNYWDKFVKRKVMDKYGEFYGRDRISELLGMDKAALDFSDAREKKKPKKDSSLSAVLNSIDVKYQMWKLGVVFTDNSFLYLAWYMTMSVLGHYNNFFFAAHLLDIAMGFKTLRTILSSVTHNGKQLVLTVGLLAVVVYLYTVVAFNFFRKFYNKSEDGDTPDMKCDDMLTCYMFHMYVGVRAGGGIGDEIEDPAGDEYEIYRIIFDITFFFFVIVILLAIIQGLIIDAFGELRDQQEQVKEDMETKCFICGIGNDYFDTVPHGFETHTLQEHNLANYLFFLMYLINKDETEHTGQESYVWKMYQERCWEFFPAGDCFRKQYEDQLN", "T2 sequence (P68106 whole entry partner, the tested form may be a part)": "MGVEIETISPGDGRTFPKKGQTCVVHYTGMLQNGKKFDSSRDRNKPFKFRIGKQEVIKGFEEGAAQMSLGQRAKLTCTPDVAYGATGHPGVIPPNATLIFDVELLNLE", "assay": "Cryo-EM analysis with normalized difference in RMSD (pairwise domain comparison)", "protocol": "Each of the final samples (3 μl each) prepared in EXAMPLE 5 was applied to UltrAuFoil holey gold grids (Quantifoil R 0.6/1.0, Au 300) previously cleaned with easiGlow (PELCO). Grids were blotted with ashless filter paper (Whatman) using blot force 10 and blot time 8 s before vitrification by plunge-freezing into liquid ethane chilled with liquid nitrogen using Vitrobot Mark IV (Thermo Fisher Scientific) operated at 4° C. with 100% relative humidity.\nPrepared grids were screened in-house on a Glacios Cryo-TEM (Thermo Fisher Scientific) microscope with a 200-kV x-FEG source and a Falcon 3EC direct electron detector (Thermo Fisher Scientific). Microscope operations and data collection were carried out using EPU software (Thermo Fisher Scientific). High-resolution data collection was performed at Columbia University on a Titan Krios 300-kV (Thermo Fisher Scientific) microscope equipped with an energy filter (slit width 20 eV) and a K3 direct electron detector (Gatan). Data were collected using Leginon and at a nominal magnification of ×105,000 in electron counting mode, corresponding to a pixel size of 0.83 Å. The electron dose rate was set to 16 e^−/pixel per second with 2.5-s exposures for a total dose of 50 to 60 e/A2.\nCryo-EM data processing was performed in cryoSPARC with image stacks aligned using Patch motion, defocus value estimation by Patch CTF estimation. Particle picking was performed using the template picker with templates created from preexisting cryo-EM maps. Particles were subjected to 2D classification in cryoSPARC with 100 classes. Particles from the highest-resolution classes were pooled for ab initio 3D reconstruction with a single class followed by homogeneous refinement with C4 symmetry imposed. 3D variability and further clustering were performed using a mask comprising the TM domain to separate those particles in the closed and open states followed by heterogeneous refinement with four classes to further select the best particles. C4 symmetry expansion was performed before local refinements. The masks used were TaF+TM+CTD domains (residues 4131 to 4967), calstabin-2+NTD+SPRY domains (residues 1 to 1646), JSol+CSol domains (residues 1700 to 2476, 3590 to 4130), and BSol domain (residues 2400 to 3344). Only the TaF+TM+CTD mask used C4 symmetry. Smaller masks, for a second round of 3D variability analysis, clustering, and local refinement, were RY1&2 (residues 862 to 1076), RY3&4 (residues 2685 to 2909), and BSol2 (residues 3042 to 3344). Local refinements used a dynamical mask with a far distance of 10, 50, and 150 Å for the initial masks, small masks, and expanded RY3&4 mask for comparing the effect of RY3&4 stabilization, respectively. The resulting maps were combined in ChimeraX to generate a composite map before calibration of the pixel size using correlation coefficients with a map generated from the crystal structure of the NTD of RyR2 (PDB ID: 4JKQ). The pixel size was altered by 0.001 Å per step, up to 20 steps in each direction.\nAn initial model of RYR2 was generated with Phenix tool sculptor from a 2.45-Å structure of RyR1 (PDB ID: 7TZC). Truncated residues were manually corrected to obtain the full side chains. Only domains RY1&2 and RY3&4, which show weak cryo-EM density and confidence in structure, were based on crystallographic structures. The initial model of RyR2 RY1&2 domain was generated with Phenix tool sculptor from the RY1&2 domain of RyR3 with ATP (PDB ID: […]). The model of RyR2 RY3&4 domain was obtained as is (PDB ID: 4ETV). Calstabin-2 and CaM models were obtained as is (PDB ID: 6JI8). Model building was performed in Coot and refined with Phenix tool RealSpaceRefine.\nThis analysis determined the conformation of a certain query domain from a model X relative to reference closed and open states of RyR2. To this end, the RMSD of Ca of the query domain was measured between model X and the closed state (RMSDX-closed), and between model X and the open state (RMSDX-open). […]"}, "[3]": {"tested_on": "Ryr2^R2474S/WT mice", "assay": "Telemetric electrocardiogram recordings during epinephrine arrhythmia provocation", "format": "in vivo", "from_the_text": "Ryr2^R2474S/WT mice were implanted with radio telemetry transmitters (Data Sciences International). Briefly, the transmitter (PhysioTel, ETA-F10 transmitter) was inserted in mice subcutaneously along the back under general anesthesia (5% inhaled isoflurane). Two electrocardiogram (ECG) electrodes were placed hypodermically in the region of the right shoulder (negative pole) and toward the lower left chest (positive pole) to approximate lead II of the Einthoven surface ECG. During the procedure, respiratory and cardiac rhythm, adequacy of anesthetic depth, muscle relaxation, body temperature, and analgesia were monitored to avoid anesthesia-related complications. Postoperative pain was considered during a 1-week post-implantation period, and carprofen (5 mg/kg, subcutaneously) was given. A minimum period of 2 weeks was allowed for recovery from the surgery. Animals were housed in individual stainless-steel cages for telemetry recordings. Environmental parameters were recorded continuously and maintained within a fixed range: room temperature at 15° C. to 21° C. and 45 to 65% relative humidity. The artificial day/night cycle was 12-hour light/12-hour dark with light on at 0700 hours. Drinking water was provided ad libitum. Solid diet ([…]) was given daily in the morning. ECG waveforms were continuously recorded at a sampling rate of 2000 Hz using a signal transmitter-receiver (RPC-1) connected to a data acquisition system (Ponemah system, Data Sciences International). Compound 1 (50 mg/kg per day) was given in drinking water for 2 weeks before ECG recordings. Mice were recorded for 1 hour at baseline and then given epinephrine injection (1 mg/kg, intraperitoneally) and recorded for another 2 hours. The animals used in the study were maintained and studied according to protocols approved by the Institutional Animal Care and Use Committee of Columbia University (reference no. AC-AABP1551)."}, "[4]": {"molecular_target": "T3, recombinant RyR2 (Homo sapiens, UniProt Q92736)", "T3 construct": "expressed in transfected cells; host or cells: HEK293", "assay": "Single channel recordings in planar lipid bilayers (open probability)", "format": "biochemical", "settings": "xanthine 10 μM; Ca2+ 150 nM", "protocol": "To confirm the functional role of xanthine in RyR2, single-channel experiments were performed. ER vesicles from HEK293 cells expressing RyR2 were prepared by homogenizing cell pellets on ice using a Teflon glass homogenizer with two volumes of solution containing 20 mM tris-maleate (pH 7.4), 1 mM EDTA, 1 mM DTT, and protease inhibitors (Roche). Homogenate was then spun by centrifuge at 4000 g for 15 min at 4° C., and the resulting supernatant was spun by centrifuge at 40,000 g for 30 min at 4° C. The final pellet, containing the ER fractions, was resuspended and aliquoted in 250 mM sucrose, 10 mM Mops (pH 7.4), 1 mM EDTA, 1 mM DTT, and protease inhibitors. Samples were frozen in liquid nitrogen and stored at −80° C.\nER vesicles were fused to planar lipid bilayers formed by painting a lipid mixture of phosphatidylethanolamine and PC (Avanti Polar Lipids) in a 5:3 ratio in decane across a […] in polysulfonate cups (Warner Instruments) separating two chambers. […] The concentration of free Ca^2+ in the cis chamber was calculated as previously described. […] Single-channel currents were recorded at 0 mV using Bilayer Clamp BC-525D (Warner Instruments), filtered at 1 kHz using Low-Pass Bessel Filter 8 Pole (Warner Instruments), and digitized at 4 kHz. […] The recordings were analyzed using Clampfit 10.1 (Molecular Devices) and GraphPad Prism software."}, "[5]": {"settings": "P-RyR2-R2474S + Cpd1 vs closed/open PKA RyR2, 0 = closed state, 1 = open state"}, "[6]": {"settings": "50 mg/kg per day in drinking water for 2 weeks, epinephrine 1 mg/kg i.p."}}}
{"smiles": "COc1ccc2c(c1)CN(Cc1ccc(C(=O)O)cc1)CCS2", "note": "[Compound 1]", "values": [{"measurement": "SR Ca^2+ leak (increase in Fluo-4 signal after thapsigargin)", "setting": "[1]", "value": "prevented SR Ca^2+ leak"}, {"measurement": "effect on the primed state of PKA-phosphorylated RyR2-R2474S (cryo-EM structure comparison)", "setting": "[2]; 10 mM ATP, 150 nM free Ca2+, 500 μM xanthine", "value": "partially reversed the primed state"}, {"measurement": "Normalized difference in RMSD, BSol", "setting": "[2]; [5]", "value": 0.32}, {"measurement": "Normalized difference in RMSD, BSol2", "setting": "[2]; [5]", "value": 0.40}, {"measurement": "Normalized difference in RMSD, NTD", "setting": "[2]; [5]", "value": 0.42}, {"measurement": "Normalized difference in RMSD, SPRY", "setting": "[2]; [5]", "value": 0.41}, {"measurement": "reduction toward the closed state in RMSD analysis compared to primed PKA-phosphorylated RyR2-R2474S", "setting": "[2]; in some domains", "value": "more than 50%"}, {"measurement": "RMSD Cα BSol, P-RyR2-R2474S + Cpd1 (PDB:7UA1) vs P-RyR2-C (PDB:7U9Q)", "setting": "[2]; vs closed PKA RyR2", "value": "1.61 ± Å"}, {"measurement": "RMSD Cα NTD, P-RyR2-R2474S + Cpd1 (PDB:7UA1) vs P-RyR2-C (PDB:7U9Q)", "setting": "[2]; vs closed PKA RyR2", "value": "1.20 ± Å"}, {"measurement": "RMSD Cα SPRY, P-RyR2-R2474S + Cpd1 (PDB:7UA1) vs P-RyR2-C (PDB:7U9Q)", "setting": "[2]; vs closed PKA RyR2", "value": "0.88 ± Å"}, {"measurement": "RMSD Cα BSol2, P-RyR2-R2474S + Cpd1 (PDB:7UA1) vs P-RyR2-C (PDB:7U9Q)", "setting": "[2]; vs closed PKA RyR2, 10 mM NaATP, 500 μM xanthine, 150 nM free Ca2+", "value": "3.08 ± Å"}, {"measurement": "RMSD Cα CSol, P-RyR2-R2474S + Cpd1 (PDB:7UA1) vs P-RyR2-C (PDB:7U9Q)", "setting": "[2]; vs closed PKA RyR2, aligned control domain, used as error", "value": 0.53, "unit": "Å"}, {"measurement": "RMSD Cα BSol2, P-RyR2-R2474S + Cpd1 (PDB:7UA1) vs P-RyR2-O (PDB:7U9R)", "setting": "[2]; vs open PKA RyR2", "value": "4.63 ± Å"}, {"measurement": "RMSD Cα BSol, P-RyR2-R2474S + Cpd1 (PDB:7UA1) vs P-RyR2-O (PDB:7U9R)", "setting": "[2]; vs open PKA RyR2", "value": "3.36 ± Å"}, {"measurement": "RMSD Cα NTD, P-RyR2-R2474S + Cpd1 (PDB:7UA1) vs P-RyR2-O (PDB:7U9R)", "setting": "[2]; vs open PKA RyR2", "value": "1.66 ± Å"}, {"measurement": "RMSD Cα SPRY, P-RyR2-R2474S + Cpd1 (PDB:7UA1) vs P-RyR2-O (PDB:7U9R)", "setting": "[2]; vs open PKA RyR2", "value": "1.25 ± Å"}, {"measurement": "RMSD Cα CSol, P-RyR2-R2474S + Cpd1 (PDB:7UA1) vs P-RyR2-O (PDB:7U9R)", "setting": "[2]; vs open PKA RyR2, aligned control domain, used as error", "value": 0.41, "unit": "Å"}, {"measurement": "frequency of ventricular tachycardia", "setting": "[3]; [6]", "value": "reduced the frequency of ventricular tachycardia"}, {"measurement": "sudden cardiac death (SCD)", "setting": "[3]; [6]", "value": "prevented sudden cardiac death"}, {"measurement": "sustained ventricular tachycardia (sVT)", "setting": "[3]; 50 mg/kg/day in drinking water, epinephrine 1 mg/kg", "value": "prevented sVT"}]}
{"smiles": "O=c1[nH]c(=O)c2[nH]cnc2[nH]1", "note": "[xanthine]", "values": [{"measurement": "increase in the open probability of RyR2", "setting": "[4]", "value": "~25", "unit": "fold"}]}
